According to US8003668B2, “Amino-substituted 8-N-benzimidazoles and methods for their use in blood sugar disorders” (Sanofi-Aventis, priority 2005, dated 2011):

Target: T1, DPP-IV from porcine kidneys (Sus scrofa, UniProt P22411)
T1 construct: DPP-IV from porcine kidneys (Sigma, Munich); purchased Sigma, Munich; host or cells: porcine kidney (tissue-derived enzyme)
Test: Measurement of the DPP-IV activity (fluorimetric, H-Ala-Pro-AFC substrate)
Assay type: biochemical
Conditions: inhibitor at 30 μm; H-Ala-Pro-AFC 15 μm; DPP-IV 1 mU/ml; Tris/HCl pH 7.4; room temperature
Procedure: The efficacy of the compounds was tested as follows: • Measurement of the DPP-IV Activity: • Material: • DPP-IV from porcine kidneys (Sigma, Munich) • H-Ala-Pro-AFC (Bachem, Weil am Rhein) • Test conditions: • DPP-IV (1 mU/ml, end concentration) • H-Ala-Pro-AFC (15 μm end concentration) in Tris/HCl (40 mM, pH 7.4), total volume 0.2 ml
The reaction was performed at room temperature for different periods (typically 10 minutes) and stopped at the end of the reaction by adding 20 μl of ZnCl2 (1 M). The conversion of H-Ala-Pro-AFC was determined fluorimetrically by measuring the emission at 535 nm on excitation at 405 nm. In the case of addition of inhibitors, the buffer volume added was adjusted such that a total volume of the test mixture of 200 μl was maintained.
% inhibition at a fixed concentration was calculated as follows: (1−enzyme activityinhibited reaction/enzyme activityuninhibited reaction)×100
IC50 values for inhibitors were determined by varying the inhibitor concentrations at the given substrate concentration of 15 μM. Ki and Km values were determined by corresponding variation of substrate and inhibitor concentration as described (Dixon, M. and Webb, E.C.(1979) Enzymes, third edition, pp. 47-206, Academic Press). […]

T1 sequence (P22411 whole entry): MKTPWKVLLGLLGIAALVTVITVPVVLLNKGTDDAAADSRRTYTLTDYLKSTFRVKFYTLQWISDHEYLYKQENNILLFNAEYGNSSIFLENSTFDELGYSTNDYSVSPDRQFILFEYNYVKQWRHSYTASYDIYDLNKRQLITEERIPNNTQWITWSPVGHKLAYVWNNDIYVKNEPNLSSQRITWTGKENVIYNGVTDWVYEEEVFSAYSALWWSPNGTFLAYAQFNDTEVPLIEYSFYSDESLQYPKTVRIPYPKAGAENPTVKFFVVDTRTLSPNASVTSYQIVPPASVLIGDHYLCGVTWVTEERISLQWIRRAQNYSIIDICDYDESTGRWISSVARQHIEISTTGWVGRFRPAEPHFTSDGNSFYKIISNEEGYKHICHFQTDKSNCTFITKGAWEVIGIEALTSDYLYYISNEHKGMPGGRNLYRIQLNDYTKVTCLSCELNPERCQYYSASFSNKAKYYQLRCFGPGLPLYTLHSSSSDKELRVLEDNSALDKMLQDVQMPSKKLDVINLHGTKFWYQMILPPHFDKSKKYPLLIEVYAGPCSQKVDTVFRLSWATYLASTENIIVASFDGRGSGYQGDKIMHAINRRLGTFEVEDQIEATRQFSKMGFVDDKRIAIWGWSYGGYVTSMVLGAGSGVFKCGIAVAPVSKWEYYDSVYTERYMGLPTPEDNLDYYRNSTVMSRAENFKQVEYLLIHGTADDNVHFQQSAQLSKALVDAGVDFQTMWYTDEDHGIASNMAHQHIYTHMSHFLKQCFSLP

CC(C)=CCn1c(N2CCC[C@@H](N)C2)nc2ccc(NS(=O)(=O)c3ccccc3)cc21.O=C(O)C(F)(F)F [Example 1, R-N-[2-(3-R-Aminopiperidin-1-yl)-1-(3-methylbut-2-enyl)-1H-benzimidazol-6-yl]-benzenesulfonamide trifluoroacetic acid salt]
% inhibition at 30 μm: 56%
